Data reported in PMC10821532, “Sex and Cross-Sex Testosterone Treatment Alters Gamma-Hydroxybutyrate Acid Toxicokinetics and Toxicodynamics in Rats” (Pharmaceutics, 2024).

Legend:
[1] = GHB toxicokinetic study, i.v. bolus, plasma and urine up to 8 h, noncompartmental analysis; assay type: in vivo, Sprague Dawley rats; settings: 1 mg/kg AR-C 155858 iv 5 min after 1500 mg/kg GHB iv vs GHB alone
Procedure: (§1) Male and female Sprague Dawley (SD) rats, ovariectomized (OVX) females, and castrated (CST) males were obtained from Charles River (Wilmington, MA, USA) at 8 weeks of age. The animals were housed under controlled temperature and humidity with an artificial 12 h light/dark cycle, and food and water were available ad libitum. The animals were acclimatized for at least one week before experiments. Hormone treatment was conducted by implanting OVX female and CST male rats subcutaneously with 60-day release pellets containing 7.5 mg testosterone or corresponding placebo pellets (Innovative Research of America) at 10 weeks of age. After 21 days of hormone exposure, rats were utilized in toxicokinetic studies. Age-matched male and female rats were used as control groups. Female rats in the estrus stage were selected for the study. Estrus cycle stages of female rats were monitored daily by vaginal lavage smear, as described in previously published literature. The Institutional Animal Care and Use Committee (IACUC) at the University of the Pacific approved all experiments.
(§2) Jugular vein cannulas were surgically implanted under anesthesia with ketamine/xylazine. Cannulas were flushed daily with heparinized saline to maintain patency. Rats were allowed a minimum of 72 h for recovery from surgery before the experiments were conducted. GHB was administered intravenously as a 1000 mg/kg i.v. bolus or 1500 mg/kg iv bolus with or without AR-C155858 (1 mg/kg i.v. bolus) via a jugular vein cannula to the animals at 13 weeks of age (N = 5–7 per group). Rats were dosed in metabolic cages with ad libitum access to water to allow for the concurrent collection of blood and urine samples for up to 8 h. GHB was administered as a 300 mg/mL solution in sterile water, and the time of administration was considered as time 0. AR-C155858 was administered as a 1 mg/mL solution in 10% cyclodextrin in normal saline 5 min after GHB administration. Blood samples (200 μL) were taken from the jugular vein cannula at different time points: 5, 10, 20, 30, 60, 90, 120, 180, 240, 270, 300, and 330 min for 1000 mg/kg and 10, 30, 60, 90, 120, 180, 240, 270, 300, 330, 360, and 390/480 min for 1500 mg/kg bolus with or without AR-C155858. Plasma samples were separated by centrifugation and stored at −20 °C. Urine samples were collected at 120, 240, and 360 min for 1000 mg/kg and 120, 240, and 390/480 min for 1500 mg/kg bolus with or without AR-C155858 post-dose; the total urine volume was determined, and the samples were stored at −20 °C.
GHB in plasma and urine were quantified using a validated liquid chromatography/tandem mass spectrometry (LC/MS/MS) assay that was described previously. Briefly, for the preparation of plasma standards and quality controls (QCs), 5 μL of GHB-d6 and 5 μL of standard stock solution or QC stock solution were added to 45 μL of blank plasma. For each unknown plasma sample, 5 μL of GHB-d6 was added to 50 μL of plasma. Protein precipitation was then performed by the addition of 800 μL of acetonitrile with 0.1% formic acid, followed by centrifugation at 10,000 rpm for 20 min. 750 μL of the supernatant was transferred to a clean disposable glass tube and evaporated using a MultiVap Nitrogen Evaporator (Organomation, Berlin, MA, USA) under a nitrogen stream. Dried samples were reconstituted in 250 μL of 95:5 double-distilled water—acetonitrile with 0.1% acetic acid. For urine standards and QCs, 25 μL of blank urine, 5 μL of standard or QC stock solution, 5 μL of GHB-d6, and 465 μL of double-distilled water were mixed. For unknown urine samples, 25 μL of the sample was added to 5 μL of GHB-d6 and 470 μL of double-distilled water. The same LC/MS/MS method was used for GHB plasma and urine analyses. LC/MS/MS equipment consisted of an Agilent 1200 series UPLC consisting of an online degasser, binary pump, and autosampler (Agilent Technologies, Santa Clara, CA, USA) connected to a Agilent 6460 Triple Quad Mass Spectrometer. […]

[2] = tested on: Sprague Dawley (SD) rats; assay: Sedative/hypnotic effect (sleep time, RRR-LRR) after i.v. GHB; assay type: in vivo
Procedure: as §2
The sedative/hypnotic effects (sleep time) were determined, as described in a previous publication. The sedative/hypnotic duration effect of GHB was determined as the difference between the offset of the sedative/hypnotic effect (RRR) and the onset of the sedative/hypnotic effect (LRR).

[3] = target: MCT2; set-up: method as in PMID 19929853; settings: cited from earlier work
[4] = tested on: MCT4; set-up: method as in PMID 19929853; settings: cited from earlier work
[5] = Plasma testosterone level after 21 days of testosterone pellet treatment (LC-MS); assay type: in vivo, Sprague Dawley rats; settings: Sprague Dawley, rat, sc, 7.5 mg 60-day release testosterone pellet s.c.
Procedure: as §1
Testosterone plasma concentrations were quantified using a validated LC-MS assay, as described previously. […] The same LC/MS/MS equipment was used for quantification, as mentioned above. […]

Compound	Effect of AR-C 155858 on GHB fe [1]	Effect of AR-C 155858 on GHB metabolic clearance [1]	Effect of AR-C 155858 on GHB renal clearance [1]	Effect of AR-C155858 on GHB AUC ([1]; all animal groups)	Effect of AR-C155858 on GHB total clearance ([1]; all animal groups)	Effect of AR-C 155858 on GHB sleep time ([2]; 1 mg/kg AR-C 155858 iv 5 min after 1500 mg/kg GHB iv vs GHB alone)	Sleep time after AR-C 155858 administration ([2]; 1500 mg/kg GHB iv + 1 mg/kg AR-C 155858 iv 5 min after GHB, all populations) [min]	Ki [3] [µM]	Inhibitory effect on MCT4 [4]	concentration at 21 days ([5]; female, OVX rats) [ng/mL]	concentration at 21 days ([5]; male, CST rats) [ng/mL]
Cc1n[nH]c(C)c1Cc1sc2c(c1C(=O)N1C[C@H](O)CO1)c(=O)n(C)c(=O)n2CC(C)C [AR-C 155858, 6-[(3,5-Dimethyl-1H-pyrazol-4-yl)methyl]-5-[[(4S)-4-hydroxy-2-isoxazolidinyl]carbonyl]-3-methyl-1-(2-methylpropyl)thieno [2,3-d]pyrimidine-2,4(1H,3H)-dione]	significantly increased fe in testosterone-treated animal groups	did not yield any statistically significant differences in metabolic clearance across all animal groups, except in intact males	statistically significant increase in renal clearance across all animal groups, except for intact males	lower AUC	higher total clearance	significant reduction in sleep time across all animal groups	0 to 38	~0.01	no inhibitory effect on MCT4	–	–
C[C@]12CC[C@H]3[C@@H](CCC4=CC(=O)CC[C@@]43C)[C@@H]1CC[C@@H]2O [Testosterone, testosterone]	–	–	–	–	–	–	–	–	–	6.22 ± 2.63	5.44 ± 1.96
